Measured values published in a melting point compilation (Tetko et al.; mined from patent text by program, amines drawn as free bases though some values may be those of a salt).

Row | melting point [°C] | SMILES
1 | 124 to 126 | Cc1cn(C(C)(C)C(=O)N(C)C)nc1-c1ccccc1C#N
2 | 168 to 170 | Nc1cccc(-n2c(=O)c(Cc3cccnc3)nc3cccnc32)c1
3 | 169 to 170 | CC(=O)n1c(=O)n(-c2ccccc2)c(=O)n1C(C)=O
4 | 161 to 164 | O=[N+]([O-])c1oc2cc3c(cc2c1-c1ccccc1)CCC3
5 | 140 to 142 | CCCc1c(OCc2ccc(OCC(=O)O)cc2)ccc(C(C)=O)c1O
6 | 100 to 101 | CCOC(=O)c1c2ccc(Cl)cc2c(-c2ccccc2)n1CCCC(C)C1OCCO1 (centres undefined)
7 | 180 to 182 | COC(=O)Nc1cc2c(cn1)[nH]c1ccccc12
8 | 47 | COC1=C(OC)C(=O)C(CCCCCCCCCCCCOC(C)=O)=C(C)C1=O
9 | 106 | CCCCCCCCCCCCCCCCCCCCCCSCCC(=O)NN
10 | 102 to 105 | COC(=O)C1Cc2c([nH]c3ccccc23)C(c2c(Cl)cccc2Cl)N1 (centres undefined)
11 | 168 to 172 | CCCc1nc2c(N)nc3cc(OCCCCCCNC(C)=O)ccc3c2n1CCCCNS(C)(=O)=O
12 | 192 to 194 | Oc1ccc(-c2noc3cc(O)ccc23)cc1
13 | 226 to 230 | CC(=O)NC[C@H]1CN(c2ccc(N3CCC(C#N)(NNC(=O)c4cccs4)CC3)c(F)c2)C(=O)O1
14 | 171 to 173 | CN(C)CC1CCc2c(c3cc(C(N)=O)ccc3n2C)C1=O (centres undefined)
15 | 308 to 309 | Cc1nnc(-c2cc3cccc(NS(=O)(=O)c4cccs4)c3[nH]2)s1
16 | 128 to 130 | CCCCNC(=O)NS(=O)(=O)c1cc(I)ccc1C(=O)OC
17 | 87 to 88 | CCOC(=O)c1nnc(Cc2ccccc2Cl)n1C
18 | 223 to 224 | O=c1c2ccccc2nc(-c2cc(-c3ccccc3)c(N3CCOCC3)s2)n1-c1ccc(Cl)cc1
19 | 106 to 107 | CCCCC(=O)Nc1c(C)c(C)c2c(c1C)C(c1ccc(C(C)C)cc1)C(C)(C)O2 (centres undefined)
20 | 190 to 191 | CCOC(=O)C1=C(C(OC)OC)Nc2nccn2C1c1cccc([N+](=O)[O-])c1 (centres undefined)
21 | 175 | CNS(=O)(=O)c1cc(C)ccc1C=C1c2ccccc2CCc2ccccc21
22 | 136 to 137 | CC(C)(C)OC(=O)CCN1CCN(CC2CN(c3ccc(C(=N)NC(=O)c4ccccc4)cc3)C(=O)O2)CC1 (centres undefined)
23 | 186 to 187 | Cc1oc(-c2ccccc2)nc1COc1ccc(C(=O)c2ccccc2OC(C)C(=O)O)cc1 (centres undefined)
24 | 172 to 174 | Nc1ncccc1-c1nc2cccnc2n1-c1ccc(CNC(=O)c2ccccn2)cc1

Row | melting point [°C] | SMILES
25 | 167 to 168 | CCC1Cc2c(O)cc(OC)cc2C(=O)O1 (centres undefined)
26 | 95 to 97 | CCCCCCCCCCCCCCCCCCS(=O)c1cc2ccccc2c(N)c1O (centres undefined)
27 | 210 to 217 | CC(C)c1cc(S(=O)(=O)c2c(Br)cc(CC(N)C(=O)O)cc2Br)ccc1O (centres undefined)
28 | 108 to 111 | c1ccc(C2=Nc3ccccc3OC2)cc1
29 | 54 to 55 | Ic1n[nH]c2ccccc12
30 | 55 to 58 | CCCCC1=NC2(CCCC2)C(=O)N1Cc1ccc(-c2ccccc2S(=O)(=O)Nc2onc(C)c2C)c(OCCOC)c1
31 | 112 to 113 | O=C(c1ccccc1)c1ccc(-c2nc(COc3ccc(CCCn4ccnc4)cc3)co2)cc1
32 | 177 to 180 | O=C(O)CCCn1c(-c2ccc3c(c2)OCO3)nc2ccccc21
33 | 145 | CCCS(=O)(=O)Nc1ccc(C(=O)c2nc(-c3cccc(C(=O)O)c3)c3ccccn23)cc1OC
34 | 237 | CN(C(=O)c1cnn(C)c1C(=O)Nc1ccc2nc(-c3cccnc3)nn2c1)C1CC1
35 | 162 to 164 | C=CCn1cc(C(O)(c2ccc3c(cnn3C(=O)NCC)c2)C(F)(F)F)c2ccccc21 (centres undefined)
36 | 180 to 181 | CCC1(CC)OC(=S)Nc2ccc(-c3cccc([N+](=O)[O-])c3)cc21
37 | 80 to 82 | CC1(C)CCC(Cc2ccc(Cl)cc2)=C(O)C1=O
38 | 216 to 217 | N#Cc1c(N)[nH]c2c1COc1ccccc1-2
39 | 226 to 228 | CCN1C(=O)C(C)(C)CCc2c1ccc(Nc1ncc(Cl)c(Nc3ccccc3C(=O)NC)n1)c2OC
40 | 147 | CCc1ccccc1S(=O)(=O)N(OCCF)C(=O)n1nc(C)n(C2CC2)c1=O
41 | 245 to 246 | CC(C)n1nc(-c2sc(NC(=O)c3ccccn3)nc2-c2ccccc2)ccc1=O
42 | 140 to 141 | CCCc1ccc2c(c1)N(c1ncnc3cc(OC)c(OC)cc13)CC2
43 | 176 to 178 | CC(C)C[C@H](NC(=O)[C@H](Cc1c[nH]cn1)NC(=O)[C@H](Cc1cccc2ccccc12)NC(=O)OCc1ccccc1)[C@H](O)CO
44 | 90 to 91 | O=C(NCCCSc1ccncc1)c1cccnc1
45 | 107 to 109 | CC(C)C[C@H](NC(=O)c1ccc2c(c1)Nc1ccccc1S2)C(=O)N[C@H]1CCOC1OC(=O)C(C)(C)C (some centres undefined)
46 | 163 to 165 | CCOC(=O)c1c2ccc(CC(=O)NOCCN3CCCCC3)ccc-2c(C(=O)OCC)c1N
47 | 80 to 81 | OCc1cnoc1-c1cccc(Cl)c1
48 | 161 to 162 | CCCOc1cc(C(=O)O)cc(N)c1Cc1ccccc1

More lines, now with the values behind:

Row | SMILES | melting point [°C]
49 | CC1C2C(C(=O)N1Cc1ccc3c(c1)OCO3)C(c1ccc(Br)cc1)N(C)C2(C)C (centres undefined) | 142 to 144
50 | Cc1c2c(c(C)c3c1NC(C)(C)C3)OC(C)(CI)C2 (centres undefined) | 100 to 104
51 | CC(C)=CCCC(C)=CCCC(C)=CC=CC(C)=CC(=O)N(C)C | 39 to 39.5
52 | O=C(O)CC(c1ccccc1)N1CC(NC(=O)C(=NO)c2ccccc2)C1=O (centres undefined) | 157 to 158
53 | c1ccc(OCCSCc2nnc(-c3ccc(OCc4cccnc4)cc3)o2)cc1 | 111 to 112
54 | NCCCn1cnc(-c2ccc(F)cc2)c1-c1ccncc1 | 81 to 82
55 | Cc1csc2ncc(C=O)n12 | 163 to 165
56 | Cn1ccc2c(N3CCN(CC4CCc5ccccc5N4C(=O)C4CCCCC4)CC3)cccc21 (centres undefined) | 66 to 70
57 | CCCN1CCC(c2n[nH]c3cc(F)ccc23)CC1 | 175 to 177
58 | COc1ccc(C2=C(CO)c3ccc(OC)cc3CC2)cc1 | 121
59 | CCS(=O)c1nsc(NC(=O)N(C)C)c1C#N (centres undefined) | 162 to 163
60 | COC(=O)COc1ccc(C(=O)Nc2ccccc2Sc2ccccc2-c2nnn[nH]2)cc1 | 204 to 205
61 | CN1CCC[C@H]1Cc1cc2cccnc2[nH]1 | 130 to 131
62 | Cc1nn(-c2ccc(C#N)c(Cl)c2)c(C)c1Cc1ccc(C(=O)NC(C)(C)C)cc1 | 135 to 136
63 | CC(=O)CN1CCc2c(c(=O)oc3cc(C)c(C)cc23)C1 | 136 to 138
64 | CC(=O)CCC(=O)N(C)c1nnc(-c2cccnc2)s1 | 146 to 147
65 | O=C(c1ccccc1C(c1ccc(O)cc1)c1ccc(O)cc1)N(C1CCCCC1)C1CCCCC1 | > 300
66 | CCN1CCN(CCCOc2cc3ncc(C#N)c(Nc4ccc(Sc5nccn5C)c(Cl)c4)c3cc2OCCOC)CC1 | 188 to 190
67 | CCS(=O)(=O)N(C)C1CCCOc2c(C)cc(Cl)cc21 (centres undefined) | 141 to 143
68 | CC1=NCCN1c1cnc2[nH]cc(C(=O)C(C)(C)C)c2n1 | 235 to 236
69 | Cc1c(Cl)c(Oc2ncc(C(F)(F)F)cc2Cl)nn1C(=O)NCCCl | 112 to 114
70 | FC(F)c1nc2ccccc2n1-c1nc(Nc2cnc3ccccc3c2)nc(N2CCOCC2)n1 | 270 to 273
71 | CC(=O)Oc1ccc(C(=O)Oc2ccc(C(=O)O)cc2)cc1 | 98 to 100
72 | Cn1ccnc1C(O)(c1ccc(Cl)cc1)c1ccc(Cl)cc1 | 190 to 191
73 | Cc1nc2c(cc1CO)CCCCC2 | 79 to 80
74 | COC(=O)C(Cl)C(C)=NNS(=O)(=O)c1ccc(C)cc1 (centres undefined) | 97 to 101

Row | SMILES | melting point [°C]
75 | O=C(c1ccc(-c2ccccc2)cc1)N1Cc2cccn2Cc2ncccc21 | 171 to 172
76 | O=C(O)CS(=O)(=O)Nc1ccc(F)c(C(F)(F)F)c1 | 138 to 140
77 | O=C(O)CCc1cn(Cc2ccc(OCc3ccc(-c4ccccc4)nc3)cc2)cc1-c1ccccc1 | 185 to 186
78 | CSc1nc(N)c(O)c(=O)[nH]1 | 243 to 245
79 | CN(CCO)c1cc2c(=O)n(NS(C)(=O)=O)c(=O)[nH]c2cc1C(F)(F)F | 220 to 224
80 | COCn1ccnc1C(O)(c1ccccc1)c1ccccc1C(C)(C)C (centres undefined) | 149 to 150
81 | Cc1c(-c2ccc(S)nn2)ssc1=S | 245
82 | COc1cc(C(=O)N2CCN(C(=O)C3=Cc4cc(O)c(O)cc4CCC3)CC2)cc(OC)c1OC | 206 to 207
83 | O=S(=O)(Oc1ccc2ncc3c(c2c1)CCCC3)C(F)(F)F | 80 to 81
84 | COc1ccc(F)c2c1C(=O)CC2 | 118 to 120
85 | O=C1CNCCN1c1cccc([N+](=O)[O-])c1 | 137 to 139
86 | CSc1ccc(-c2nn(Cc3ccc(F)cc3F)c(=S)cc2-c2ccc(Cl)cc2)cc1 | 176 to 177
87 | CCOC(=O)CS(=O)(=O)Cl | 74 to 77
88 | CNS(=O)(=O)c1cc(-n2nc3ccc(Cl)cn3c2=O)c(F)cc1C#N | 154 to 157
89 | CS(=O)(=O)c1ccc(-c2cc3n(c2-c2ccc(F)cc2)CCC3)cc1 | 154
90 | CC(C)(C)C1OC1C(O)c1ccc(C(F)(F)F)cc1 (centres undefined) | 74 to 75
91 | CC(/C=C/[C@H]1C[C@H]1c1ccc2c(c1)C(C)(C)CCC2(C)C)=C\C(=O)O (racemic) | 93 to 96
92 | Cc1ccc(-c2ccc(C(=O)Nc3ccc4nc(CN5CCCC5)ccc4c3)cn2)cc1 | 207 to 209
93 | COc1ccc2nc(NC(=O)C(CC3CCCC3)c3ccc(S(=O)(=O)N(C)C)cc3)sc2n1 (centres undefined) | 229 to 234
94 | C#CC12CC3CC(C1)CC(C#C)(C3)C2 | 46
95 | CCCS(=O)(=O)C(c1cnc(C(N)=O)cc1C)c1c(F)ccc(F)c1F (centres undefined) | 202 to 204
96 | CCOC(=O)C1CC1C(=O)O (centres undefined) | 46
97 | OC1CSC(Oc2ccc(-c3cccnc3Cl)nc2)C(O)C1O (centres undefined) | 203
98 | COc1ccc(C(=O)Nc2ccc(F)cc2)cc1NS(=O)(=O)c1ccc([N+](=O)[O-])cc1 | 208 to 211
99 | O=C(O)CN1C(=O)C(=Cc2cc(Cl)ccc2O)SC1=S | 243 to 247
